Data from patent US20190359645A1, “2'3'-CYCLIC DINUCLEOTIDES COMPRISING CARBOCYCLIC NUCLEOTIDE” (Institute of Organic Chemistry and Biochemistry ASCR, V.V.I., priority 2018, published 2019).

Molecular target: WT STING (Homo sapiens, UniProt Q86WV6, H232R)
Assay: Digitonin assay using 293T wtSTING-FL reporter cells
Assay type: cell-based
Parameters: host or cells: 293T (ATCC CRL-3216), stably transfected; also carries the 4xISRE firefly luciferase reporter
Conditions: 293T wtSTING-FL cells, digitonin buffer 30 min, then 5 h, ISRE firefly luciferase reporter; read-out: Digitonin assay EC50 WT STING
Source text: Two complementary oligonucleotides of the sequence […] […] […] […] (SEQ ID NO: 1) and […] […] (SEQ ID NO:2) containing four interferon-sensitive response elements (ISRE) were synthesized by Sigma Aldrich (Czech Republic, Prague). The oligonucleotides were mixed in equal molar amounts, hybridized, and cleaved by restriction endonucleases HindIII (cat. #. R^0104S, NEB, Ipswich, USA) and BglII (cat. # R^0144S, NEB, Ipswich, USA). Ultimately, they were ligated into plasmid pGL4.27 (cat. # E6651, Promega, Madison, USA) linearized with the same enzymes. As a result, the sequence with four ISRE sites was placed upstream of the minimum promoter of firefly luciferase reporter gene.
293T cells (cat. # CRL-3216, ATCC, Manassas, USA) were seeded a day before transfection at density 125,000 cells per cm^2 onto poly-D-lysine (cat. # P6407, Sigma Aldrich, Czech Republic) coated six well plates in antibiotic free DMEM with high glucose (cat. # D5796, Sigma Aldrich, Czech Republic) supplemented with 10% heat inactivated FBS (cat. # S1520, Biowest, Riverside, USA). On the day of transfection, 2.5 μg of the plasmid pUNO1-hSTING-WT (cat. # punol-hstingwt, InvivoGen, San Diego, USA,) encoding human wild type STING (WT STING) was diluted in 125 μL OptiMEM medium (cat. #31985062, ThermoFisher, Waltham, USA) and mixed with 125 μL of the same medium containing 12.5 μL of Lipofectamine 2000 (cat. #11668019, ThermoFisher, Waltham, USA). After 5 minutes incubation at room temperature (RT), 250 μL of the mixture was added dropwise to the cells in one well. Cells were incubated 36 hours at 37° C. with 5% CO2, and then detached with 0.05% Trypsin and 0.22 g/L EDTA (both cat. # L0941, Biowest, Riverside, USA).
Transfected cells were seeded onto poly-D-lysine coated six well plates at density 50,000 cells per 1 cm^2 in DMEM medium with high glucose containing 10% heat inactivated FBS, […] blasticidin (cat. # ant-bl-05, InvivoGen, San Diego, USA), 0.06 mg/ml Penicillin G and 0.1 mg/ml Streptomycin Sulfate (both cat. #. L0018, Biowest, Riverside, USA). The medium was replenished every 3-4 days until visible colonies of cells resistant to blasticidin were formed.
Blasticidin resistant cells stably expressing WT STING were further transfected with […] plasmid following the same procedure as described above. The transfected cells were selected for the resistance to 300 μg/mL hygromycin (cat. #. 10687010, ThermoFisher, Waltham, USA) in DMEM with high glucose containing 10% heat inactivated FBS, […] blasticidin, 0.06 mg/ml Penicillin G and 0.1 mg/ml Streptomycin Sulfate. Homogeneous culture of stably double transfected cells was prepared by limiting dilution of cells in 96 well plates and wells with cells were selected that originated from a single cell. These cells were expanded, and expression of WT STING was confirmed by western blot using monoclonal mouse anti STING antibodies (cat. #. MAB7169, 1:1000 dilution; […] cat. #. HAF007, 1:2000 dilution, both from R&D Systems, Minneapolis, USA), and by induction of firefly luciferase expression in the presence of 50 μM STING agonist 2′3′ cGAMP (cat. # tlrl-nacga23, InvivoGen, San Diego, USA). Genomic DNA from the transfected cells was amplified with primers pUNO1_Seq_F ([…]) (SEQ ID NO:3) and pUNO1_Seq_R ([…]) (SEQ ID NO:4) that were complementary to pUNO1 plasmid and the presence of WT STING gene in the transfected cells was confirmed by DNA sequencing.
293T wtSTING-FL cells were seeded at density of 250,000 cells per cm^2 onto 96 well poly-D-lysine coated plates in 100 μl DMEM with high glucose supplemented with 10% heat inactivated FBS. […]

Chain of WT STING (Q86WV6 whole entry H232R): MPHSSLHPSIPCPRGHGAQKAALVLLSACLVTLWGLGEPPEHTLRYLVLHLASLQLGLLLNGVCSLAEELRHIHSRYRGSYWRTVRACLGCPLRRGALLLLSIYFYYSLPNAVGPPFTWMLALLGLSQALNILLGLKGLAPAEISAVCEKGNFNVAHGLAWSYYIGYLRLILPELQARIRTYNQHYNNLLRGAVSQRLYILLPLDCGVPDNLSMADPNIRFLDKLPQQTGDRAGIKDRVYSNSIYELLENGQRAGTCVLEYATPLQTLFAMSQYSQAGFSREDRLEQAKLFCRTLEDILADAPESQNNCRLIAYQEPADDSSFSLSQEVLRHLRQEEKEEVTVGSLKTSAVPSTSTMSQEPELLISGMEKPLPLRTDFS

Structure (SMILES): Nc1ncnc2c1ncn2[C@@H]1O[C@@H]2COP(=O)(O)O[C@@H]3[C@H](F)[C@@H](COP(=O)(O)O[C@H]2[C@H]1F)C[C@H]3n1cnc2c(=O)[nH]cnc21 [Compound 127]
- EC50: 30 nM
